Assay results from patent US10544113B2 (priority 2016, dated 2020).
Where two headings read alike, the source gives them in different places.

Target: mu-opioid receptor (MOR) (Homo sapiens (Human), UniProt P35372)
Test: cell-based
Settings: combined with a MOR antagonist; for AUC: AUC of [Ca2+]i fluorescence, CHO-K1/MOR/Gα15 cells
Protocol: In an exemplary in vitro screening method for identifying antagonist-to-agonist allosteric modifiers of a MOR, cells that express a MOR are treated with a test compound and a MOR antagonist in a cellular calcium fluorescent assay and fluorescence intensity is then measured to determine whether the MOR is activated. A test compound is identified as an antagonist-to-agonist allosteric modifier of the MOR if the MOR is activated.
EC50 herein refers to the concentration of a compound that induces a response halfway between the baseline and the maximum after a specified exposure time. AUC refers to the area under the response curve, an indication of the compound's capability of activating a MOR when combined with a MOR antagonist.
Human embryonic kidney 293 (HEK-293) cells constitutively expressing MOR (HEK-MOR) and DOR (HEK-DOR) (kindly provided by Dr. Ping-Yee Law, University of Minnesota, USA) were cultured in high-glucose Dulbecco's modified Eagle's medium (DMEM, GIBCO) supplemented with 400 μg/mL G418 (Sigma), 2 mM L-glutamine and P/S/F (100 units/mL penicillin, 100 μg/mL streptomycin, 10% fetal bovine serum). Chinese hamster ovary (CHO)-K1 cells, stably expressing hMOR and Gα15 (CHO-K1/MOR/Gα15), were cultured in F12 medium (GIBCO) supplemented with 10 μg/mL Hygromycin B (Invivogen), 20 μg/mL Zeocin (Invivogen) P/S/F (100 units/mL penicillin, 100 μg/mL streptomycin, 10% fetal bovine serum). The cultures were incubated at 37° C. in a humidified 5% CO2 incubator.
One day before the assay, CORNING® black with clear flat bottom 96-well assay plates were coated with a 0.1 mg/mL Poly-L-Lysine solution. CHO-K1/MOR/Gα15 cells were suspended in the F12 medium and plated at a density of ˜8×10^4 cells/well in 200 μL medium. Cells were incubated in a humidified atmosphere of 10% CO2 at 37° C. overnight so as to reach an 80-90% confluent cell monolayer before assay. At the day of assay, 150 μL medium/well was removed from plate. To each well, 50 μL FLIPR® calcium assay reagent dissolved in 1× assay buffer (HBSS: KCl 5 mM, KH2PO4 0.3 mM, NaCl 138 mM, NaHCO3 4 mM, Na2HPO4 0.3 mM, d-glucose 5.6 mM, with additional 20 mM HEPES and 13 mM CaCl2, pH 7.4), with 2.5 mM probenecid was added and the plate was incubated at 37° C. for 1 h. Compounds and other reagents were dissolved in the assay buffer. Using a FlexStationIII (Molecular Devices Corp.), the [Ca^2+]i fluorescence increases after robotic injections of compounds or other reagents were monitored every 1.52 s interval with excitation wavelength at 485 nm and with emission wavelength at 525 nm. The [Ca^2+]i fluorescence was measured up to 90 s after agonist injection.
A CHO-K1 cell line, expressing a MOR and Gα15 (GenScript), was used to set up a sensitive high-throughput screen (HTS) system. In a FLIPR® calcium assay using CHO-K1/MOR/Gα15 cells, activation of MOR elicits an intracellular calcium release leading to an increase in the relative fluorescence units (FRU). […] The HTS was performed in the absence or presence of an opioid antagonist, naloxone (25 nM), to identify antagonist to agonist allosteric modifiers (AAM).
A CHO-K1 cell line, expressing a MOR and Gα15 (GenScript), was used to set up a sensitive assay system for detecting μ-opioid receptor activation. […] The assay was performed in the presence of an opioid antagonist, i.e., naloxone (25 nM), naltrexone (20 nM), samidorphan (10 nM), naloxonazine dihydrochloride (20 nM), β-funaltrexamine hydrochloride (20 nM), cyprodime hydrochloride (500 nM), or nalmefene (20 nM), in combination with compound 58, an antagonist to agonist allosteric modifier (AAM), to identify activation of the μ-opioid receptor.

Chain of mu-opioid receptor (MOR) (P35372 whole entry): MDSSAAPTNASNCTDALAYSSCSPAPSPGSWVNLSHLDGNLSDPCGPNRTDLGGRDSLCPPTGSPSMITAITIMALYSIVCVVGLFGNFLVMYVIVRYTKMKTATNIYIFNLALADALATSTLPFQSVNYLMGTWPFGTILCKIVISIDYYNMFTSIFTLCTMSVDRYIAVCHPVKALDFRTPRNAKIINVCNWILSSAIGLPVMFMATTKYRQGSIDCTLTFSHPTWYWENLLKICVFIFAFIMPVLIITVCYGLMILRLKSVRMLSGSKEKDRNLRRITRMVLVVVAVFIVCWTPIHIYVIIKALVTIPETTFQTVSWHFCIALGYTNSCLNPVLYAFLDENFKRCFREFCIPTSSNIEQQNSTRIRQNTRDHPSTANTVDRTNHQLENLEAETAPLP

| SMILES | FLIPR Ca^2+ AUC | EC50 (read-out: FLIPR Ca^2+ EC50) | EC50 (EC50, CHO-K1/MOR/Gα15 cells) | AUC |
| --- | --- | --- | --- | --- |
| Cc1cc(C(=O)OC2CCN(C)CC2)ccc1N1C(=O)CSC1c1ccc(F)cc1 (stereo not shown) [Example 301] | 9593 | 0.9 µM |  |  |
| Cc1cc(C(=O)N2CC(O)C2)ccc1N1C(=O)CSC1c1ccc(F)cc1 (stereo not shown) [Example 354] | 14863 | 3.6 µM |  |  |
| Cc1cccnc1N1C(=O)CSC1c1ccc(F)cc1 (stereo not shown) [Example 629, 2-(4-Fluorophenyl)-3-(3-methylpyridin-2-yl)-1,3-thiazolidin-4-one] | 4804 | 10 µM |  |  |
| Cc1cc(-c2nnc(C(F)(F)F)o2)ccc1N1C(=O)CSC1c1ccc(F)cc1 (stereo not shown) [Example 228] | 7035 | 8.6 µM |  |  |
| Cc1cc(C(=O)OCC2CCCC2)ccc1N1C(=O)CSC1c1ccc(F)cc1 (stereo not shown) [Example 239] | 4342 | 9.4 µM | < 10 µM |  |
| Cc1cc(C(=O)NCc2cccc(C(F)(F)F)c2)ccc1N1C(=O)CSC1c1ccc(F)cc1 (stereo not shown) [Example 377] | 12637 | 12.5 µM |  |  |
| [2H]c1c([2H])c(C2SCC(=O)N2c2ccc(C(=O)O)cc2C)c([2H])c([2H])c1F (stereo not shown) [Example 579, 4-{2-[4-Fluoro-2,3,5,6-d4-phenyl]-4-oxo-1,3-thiazolidin-3-yl}-3-methylbenzoic acid] | 14761 | 1.93 µM |  |  |
| Cc1cc(C(=O)OCCOCCOC(=O)c2ccc(N3C(=O)CSC3c3ccc(F)cc3)c(C)c2)ccc1N1C(=O)CSC1c1ccc(F)cc1 (stereo not shown) [Example 390] | 7399 | 13.9 µM |  | more than 5000 |
| Cc1cc(C(=O)OCCOCCN(C)C)ccc1N1C(=O)CSC1c1ccc(F)cc1 (stereo not shown) [Example 306] | 7531 | 6.2 µM | < 10 µM | more than 5000 |
| CONC(=O)c1ccc(N2C(=O)CSC2c2ccc(F)cc2)c(C)c1 (stereo not shown) | 14236 | 4.2 µM |  |  |
| C=Cc1cc(C(=O)O)ccc1N1C(=O)CSC1c1ccc(F)cc1 (stereo not shown) [Example 157] | 5903 | 10 µM | < 10 µM | more than 5000 |
| Cc1cc(C(=O)O)ccc1N1C(=O)CSC1c1ccc(Cl)cc1 (stereo not shown) [Example 84] | 5509 | 7.2 µM | < 10 µM | more than 5000 |
| CCCS(=O)(=O)NC(=O)c1ccc(N2C(=O)CSC2c2ccc(F)cc2)c(C)c1 (stereo not shown) [Example 160] | 13549 | 4.3 µM | < 10 µM | more than 5000 |
| Cc1cc(C(=O)NCCCN2CCOCC2)ccc1N1C(=O)CSC1c1ccc(F)cc1 (stereo not shown) [Example 347] | 12967 | 8.2 µM |  |  |
| Cc1cc(C(=N)NO)ccc1N1C(=O)CSC1c1ccc(F)cc1 (stereo not shown) [Example 151] | 10591 | 3.4 µM | < 10 µM | more than 5000 |
| CCS(=O)(=O)NC(=O)c1ccc(N2C(=O)CSC2c2ccc(F)cc2)c(C)c1 (stereo not shown) [Example 162] | 13767 | 9.1 µM | < 10 µM | more than 5000 |

| SMILES | FLIPR Ca^2+ AUC | EC50 (read-out: FLIPR Ca^2+ EC50) | EC50 (EC50, CHO-K1/MOR/Gα15 cells) | AUC |
| --- | --- | --- | --- | --- |
| Cc1ccc(F)cc1N1C(=O)CSC1c1cc(F)cc(F)c1 (stereo not shown) [Example 122] | 7010 | 3.6 µM |  | more than 5000 |
| Cc1cc(C(=O)O)ccc1N1C(=O)CSC1c1cc(F)cc(F)c1 (stereo not shown) [Example 64] | 9368 | 6 µM | < 10 µM | more than 5000 |
| CCOC(=O)OC(C)OC(=O)c1ccc(N2C(=O)CSC2c2ccc(F)cc2)c(C)c1 (stereo not shown) [Example 313, 3-(1,5-Dimethyl-3-oxo-2-phenyl-2,3-dihydro-1H-pyrazol-4-yl)-2-(4-(methylthi)phenyl)thiazolidin-4-one] |  |  | < 10 µM |  |
| Cc1cc(C(=O)NCCCN(C)C)ccc1N1C(=O)CSC1c1ccc(F)cc1 (stereo not shown) [Example 342] | 16741 | 3.3 µM |  |  |
| Cc1cc(C(=O)NS(=O)(=O)c2cccnc2)ccc1N1C(=O)CSC1c1ccc(F)cc1 (stereo not shown) [Example 211] | 8779 | 0.3 µM | < 10 µM | more than 5000 |
| COc1cc(C(=O)O)ccc1N1C(=O)CSC1c1ccc(F)cc1 (stereo not shown) [Example 12, 4-[2-(4-Fluoro-phenyl)-4-oxo-thiazolidin-3-yl]-3-methoxy-benzoic acid] | 12252 | 10.6 µM |  |  |
| Cc1ccc(S(=O)(=O)NC(=O)c2ccc(N3C(=O)CSC3c3ccc(F)cc3)c(C)c2)cc1 (stereo not shown) [Example 185] | 18048 | 0.6 µM |  |  |
| COc1ccccc1NC(=O)c1ccc(N2C(=O)CSC2c2ccc(F)cc2)c(C)c1 (stereo not shown) [Example 373] | 12223 | 13.6 µM |  | more than 5000 |
| Cc1cc(C(=O)OC2CCN(C)C2)ccc1N1C(=O)CSC1c1ccc(F)cc1 (stereo not shown) [Example 300] | 12918 | 1.6 µM |  |  |
| Cc1c(N2C(=O)CSC2c2ccccc2F)c(=O)n(-c2ccccc2)n1C (stereo not shown) [Example 406] | 9974 | 31.2 µM |  | more than 5000 |
| COC(=O)COc1ccc(N2C(=O)CSC2c2ccc(F)cc2)c(C)c1 (stereo not shown) [Example 93] | 11009 | 6.4 µM | < 10 µM | more than 5000 |
| Cc1cc(C(=O)NS(=O)(=O)c2ccc(OC(F)(F)F)cc2)ccc1N1C(=O)CSC1c1ccc(F)cc1 (stereo not shown) [Example 189] | 9544 | 1.1 µM |  |  |
| COCC(C)OC(=O)c1ccc(N2C(=O)CSC2c2ccc(F)cc2)c(C)c1 (stereo not shown) [Example 279] | 10883 | 4.1 µM |  |  |
| O=C(O)c1ccc(N2C(=O)CSC2c2ccc(F)cc2)c(Cl)c1 (stereo not shown) [Example 44] |  |  | < 10 µM |  |
| Cc1cc(C(=O)OCCOCCN2CCCC2)ccc1N1C(=O)CSC1c1ccc(F)cc1 (stereo not shown) [Example 307] | 14731 | 8.7 µM | < 10 µM | more than 5000 |
| Cc1cc(C(=O)OCC2COC(C)(C)O2)ccc1N1C(=O)CSC1c1ccc(F)cc1 (stereo not shown) [Example 276] | 15090 | 6.3 µM | < 10 µM |  |
